In the METLIN SMRT retention time set (Domingo-Almenara et al. 2019) one finds RP-LC retention time data, which are given here for 33 compounds.

The structures appear in SMILES notation.

This data set can be described thus: gradient 5% acetonitrile 3 min, to 50% in 2 min, to 85% in 15 min, held 3 min, 100 µL/min. Particulars: column: Zorbax Extend-C18 2.1 x 50 mm; eluents: water / acetonitrile, 0.1% formic acid. In short, it runs like this:
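Each retention time is based on an adduct peak selected computationally and verified by manual inspection. Measurements used HPLC–quadrupole time-of-flight mass spectrometry in positive and negative ionization mode on mixtures of ~100 pure standards. Chromatography ran on a Zorbax Extend-C18 column (2.1 × 50 mm, 1.8 μm) at 100 μL/min with water and acetonitrile, each containing 0.1% formic acid, and dead and dwell volumes of 40 μL and 900 μL.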
With `COc1ccc(OC)c(CNC(=O)c2nc(N3CCOCC3)c3ccccc3n2)c1`, the RP-LC retention time was found to be 686 s.

Regarding `CC(C)n1c(N2CCN(C(=O)c3ccc(F)cc3)CC2)cc(=O)n(C(C)C)c1=O`, the RP-LC retention time is 792 s.

Compound `CCCN(C(=O)Cc1ccccc1)c1nc(-c2ccccc2)cs1` had an RP-LC retention time of 1320 s.

In turn, `CCc1nnc(-c2cc(C)n(CC(=O)NC(C)c3ccccc3)c2C)o1` (stereo not drawn) registered an RP-LC retention time of 805 s.

For `COc1ccc2c(c1)C1CC(C)(NC(=O)C1S(=O)(=O)c1ccc(C(C)C)cc1)O2` (stereo not drawn), the RP-LC retention time was 1010 s.

Take `O=C(CC1CCCCC1)Nc1ccc(-c2nnc3n2CCCC3)cc1`: the RP-LC retention time came out at 719 s.

Compound `CCOc1ccccc1NC(=O)NCC(c1cccnc1)c1cn(C)c2ccccc12` (stereo not drawn) gave an RP-LC retention time of 753 s.

In turn, `CCn1c(=O)c2cc(C(=O)Nc3ccc(OC)cc3OC)nn2c2ccccc21` yielded an RP-LC retention time of 1030 s.

Consider `COc1cccc(-c2cn3ccn(-c4ccccc4OC)c(=O)c3n2)c1`, for which the RP-LC retention time is 780 s.

In the case of `Cc1ccc(C)c(CNC(=O)Cn2cnc3onc(C)c3c2=O)c1`, the RP-LC retention time was found to be 764 s.

`Cc1ccc2nc3sc(C(=O)Nc4cccc(C(F)(F)F)c4)cc3c(=O)n2c1`: the RP-LC retention time came out at 980 s.

In turn, `O=C(CN1CCN(C(=O)N2CCCCC2)CC1)Nc1cc(Cl)ccc1Cl` yielded an RP-LC retention time of 675 s.

Compound `Cc1nn(CC(=O)NCc2ccco2)c(=O)c2c(-n3cccc3)n(-c3ccc(Cl)cc3)nc12` registered an RP-LC retention time of 990 s.

Take `O=C(NCc1cccc(Cl)c1)C1CCN(c2cncnc2N2CCOCC2)CC1`: the RP-LC retention time amounted to 647 s.

`Cc1cccc2c1cnn2C(=O)CCC(=O)N1CCN(c2ccccn2)CC1` registered an RP-LC retention time of 632 s.

`Cc1noc(C2(NC(=O)C3CCCCC3)CCCCC2)n1`: the RP-LC retention time amounted to 873 s.

Turning to `CCOC(=O)c1ccc(N2C(=O)CC(NCCCN3CCN(CC)CC3)C2=O)cc1` (stereo not drawn), the RP-LC retention time worked out at 636 s.

`Cc1ccc(NC(=O)Cn2nc3n(c2=O)CCCCC3)cc1` displayed an RP-LC retention time of 708 s.

Consider `CCOc1ccc(CCNC(=O)c2ccc(-n3cnc(NC(=O)C4CC4)c3)cc2)cc1OCC`, for which the RP-LC retention time was found to be 748 s.

Compound `O=S(=O)(c1cccn2c(SCc3ccccc3Cl)nnc12)N1CCCC1` had an RP-LC retention time of 880 s.

Compound `O=C(Nc1ccc(-c2nnc3n2CCCC3)cc1)c1ccsc1` gave an RP-LC retention time of 631 s.

Compound `C=CC1=C(C(=O)O)N2C(=O)[C@@H](NC(=O)/C(=N/OCC(=O)O)c3csc(N)n3)[C@H]2SC1` returned an RP-LC retention time of 644 s.

Compound `O=C(C1=CN(c2ccc(Cl)cc2)c2cc(Cl)ccc2S1(=O)=O)N1CCOCC1` had an RP-LC retention time of 875 s.

As to `Cc1ccc(CNC(=O)C2(c3ccc(NC(=O)C4CC4)cc3)CCC2)cc1`, the RP-LC retention time worked out at 853 s.

On to `COc1ccc(-c2cc(N3CCC(NC(=O)c4cccc(Br)c4)C3)n[nH]2)cc1` (stereo not drawn), for which the RP-LC retention time worked out at 738 s.

`O=C(NCc1cccc(F)c1)c1cn2cc(Cl)ccc2n1` showed an RP-LC retention time of 799 s.

As for `O=C(CN1C(=O)c2ccccc2C1=O)Nc1cccc(-c2cn3c(n2)SCC3)c1`, the RP-LC retention time amounted to 581 s.

`N#CCNC(=O)c1ccc(-c2ccnc(Nc3ccc(N4CCOCC4)cc3)n2)cc1` had an RP-LC retention time of 719 s.

As for `COC(=O)c1cccc(C(=O)Nc2cccc(Cl)c2C)n1`, the RP-LC retention time stood at 976 s.

In turn, `COc1ccc(NC(=O)N2CCN(C3=CC4=NC(C)CN4C=N3)CC2)cc1Cl` (stereo not drawn) displayed an RP-LC retention time of 633 s.

`Cn1nccc1-c1cccc(-c2noc(CNS(=O)(=O)c3ccc(Cl)cc3)n2)c1` yielded an RP-LC retention time of 902 s.

`O=C(CCc1c(-c2ccccc2)nc2ccccn12)Nc1ccccc1Br` showed an RP-LC retention time of 683 s.

As for `O=C(CCC1CCCC1)NCCC1CCN(C(=O)Nc2ccc(F)cc2F)CC1`, the RP-LC retention time was determined as 880 s.
